The record followed here is patent publication US9796710B2, “Dihydropyrrolopyridine inhibitors of ROR-gamma” (Vitae Pharmaceuticals, Inc., priority 2014, dated 2017).

pIC50: −log10 of the molar value.

Assay [1] has as its target recombinant RORγ Ligand Binding Domain (LBD) protein (Homo sapiens (Human), UniProt P51449). Kind of assay: Radio-Ligand RORγ Binding Assay (Assay 1). To be noted: read-out: RORγ Binding Ki Range* (nM) (Assay 1). On the procedure:
Radio-Ligand ROR ? Binding Assay (Assay 1)
The plate was shaken at 700 rpm for 20 min and incubated for 10 min at rt, after which 40 μL of poly-Lys YSi SPA beads (PerkinElmer, Cat. # RPNQ0010) were added to achieve 50 μg of the beads per well. The plate was incubated on an orbital shaker for 20 min and then for 10 min without agitation at rt. SPA signal for tritium beta radiation was registered on PerkinElmer Microbeta plate reader. […] The percent inhibition vs. concentration data were fit into a four-parameter model, and IC50 values were calculated from the fit as the concentrations corresponding to the inflection points on the dose-response curves.

Another assay has as its system IL-17A production. Put plainly: Human Whole Blood Assay (Assay 3). The format is cell-based. To be noted: IL-17A secretion, CytoStim, 48 h, 50% blood/media. On the procedure:
Human Whole Blood Assay (Assay 3)
Compounds of the invention were tested in the human whole blood assay to measure their effects on IL-17A production as determined by cytokine secretion into 50% blood/media supernatant. Mixtures of sodium heparinized whole blood (isolated from healthy human donors) and the T cell activator CytoStim, in the presence or absence of compound, were plated in sterilized, tissue culture-treated 24-well plates. Specifically, the mixtures in each well were as follows: (1) 500 μL of whole blood, (2) 250 μL of compound diluted into RPMI-1640 media containing 10% HyClone™ FCS (Thermo Fisher Scientific, Waltham, Mass.), Gibco® Pen/Strep and Gibco® NEAA (Life Technologies, Grand Island, N.Y.), and (3) 250 μL of CytoStim (Miltenyi Biotech, Germany) diluted to a final concentration of 10 μL/mL in complete cell culture medium.
IL-17A cytokine expression was determined using 25 μL of the transferred supernatant diluted with 25 μL of Diluent 43 from the Human IL-17A V-PLEX™ kit (cat. # K151RFD-4, Meso Scale Discovery, Rockville, Md.). The assay was performed according to the manufacturer's instructions using included reagents. The IL-17A V-PLEX™ plates were read using the Meso Scale Discovery Imager (Model 1200).

The target in assay [2] is full-length RORγt in Jurkat cells (Homo sapiens (Human), UniProt P51449).
full-length RORγt in Jurkat cells, sequence (P51449 other isoform, or with tags, fused parts or gaps): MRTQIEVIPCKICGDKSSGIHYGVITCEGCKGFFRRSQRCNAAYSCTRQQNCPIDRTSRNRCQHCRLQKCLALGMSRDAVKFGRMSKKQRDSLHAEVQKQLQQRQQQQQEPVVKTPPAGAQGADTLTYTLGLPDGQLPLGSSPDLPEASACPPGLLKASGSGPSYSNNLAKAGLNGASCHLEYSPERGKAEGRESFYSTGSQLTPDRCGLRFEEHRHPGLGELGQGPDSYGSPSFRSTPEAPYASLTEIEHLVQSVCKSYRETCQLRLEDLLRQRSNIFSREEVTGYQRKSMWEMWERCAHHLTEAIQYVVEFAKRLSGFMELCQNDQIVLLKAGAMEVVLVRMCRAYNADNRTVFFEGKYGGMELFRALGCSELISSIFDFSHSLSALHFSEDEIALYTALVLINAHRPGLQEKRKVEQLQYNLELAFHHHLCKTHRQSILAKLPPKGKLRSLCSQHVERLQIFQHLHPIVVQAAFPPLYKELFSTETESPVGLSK
Description: ROR ? t 5×RORE Assay in Jurkat Cells (Assay 2)
Compounds of the present invention were tested for ROR ? inverse agonist activity in a cell-based, transcriptional activity assay. […] Luciferase activity in the conditioned supernatants was determined with NanoGlo® assay reagents (Promega, Cat.# N1130).

recombinant RORγ Ligand Binding Domain (LBD) protein, sequence (P51449 269-508): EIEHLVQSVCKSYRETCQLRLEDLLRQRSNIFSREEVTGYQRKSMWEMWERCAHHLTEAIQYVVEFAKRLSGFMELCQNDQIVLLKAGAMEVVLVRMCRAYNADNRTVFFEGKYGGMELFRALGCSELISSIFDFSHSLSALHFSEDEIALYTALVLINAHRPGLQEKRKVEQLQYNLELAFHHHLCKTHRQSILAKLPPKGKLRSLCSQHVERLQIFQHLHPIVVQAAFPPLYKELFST

Turning to `CCS(=O)(=O)c1ccc([C@H](CO)NC(=O)c2cnc3c(c2)CN(C[C@H]2CC[C@H](C(F)(F)F)OC2)[C@H]3C(C)C)nc1` [Compound 4], the Ki (commonly a measure of affinity in units of concentration, obtained from inhibition or displacement) in assay [1] was < 100 nM. Moreover, in the assay with IL-17A production, the IC50 (in general, the midpoint of a concentration-inhibition curve) is < 100 nM. Moreover, in assay [2], the pIC50 (as a rule, −log10 of the IC50, conventionally taken in molar units) is > 7.00.
